Measurements reported in patent publication US20230255219A1, “SLOW RELEASE COMPOSITE ACTIVE FILMS/PACKAGING TO REDUCE FOODBORNE PATHOGENS AND IMPROVE SHELF LIFE OF RAW AND READY TO EAT FOODS” (The Penn State Research Foundation, priority 2019, published 2023).

How the values were obtained:
STEC cocktail [1] = assay type: cell-based
[2] = tested on: L. monocytogenes cocktail; experiment: Minimum bactericidal concentration (MBC), plating of wells on selective media; assay type: cell-based, Listeria monocytogenes
Experimental: (§1) A resazurin indicator-based, 96-well microplate dilution method (Elshikh et al., 2016) was used for in vitro determination of MIC and MBC of LAE, nisin and thymol against different foodborne pathogens. Overnight cultures were grown in TSB (37° C.) and a cocktail of STEC, Salmonella spp., L. monocytogenes and S. aureus was prepared by mixing equal volumes of the three corresponding strains to obtain approximately 8 log10 CFU/mL of the pathogens. Bacterial cells were washed by centrifugation at 8000 rpm/10 minutes, and cell pellets were re-suspended in the same volume of sterile Mueller Hinton Broth (MHB; Difco).
(§2) FIG. 1 illustrates the resazurin indicator-based, 96-well microplate dilution method for MIC determination of different antimicrobials against bacterial cocktails. A 100,000 IU/mL concentration of nisin (VWR) was dissolved in HCl 0.02N; 10% thymol (VWR) was prepared in concentrated ethanol; and 10% LAE (MB) was prepared in sterile distilled water. All antimicrobials were sterilized by filtration through a 0.22 μm filter (Pall; Ann Arbor, Mich.).). Each antimicrobial was diluted in sterile MHB to obtain a final concentration of 50,000 IU/mL of nisin, 5% thymol, and 5% LAE. Using a multi-channel pipette (Eppendorf; Haoppauge, N.Y.), one hundred μL of each antimicrobial in MHB was dispensed into a row in a 96-well microplate. Subsequent serial dilutions of the antimicrobials were made in MHB using the multi-channel pipette by transferring and mixing 50 μL of each compound to obtain antimicrobial concentrations of nisin (50,000-390.6 IU/mL), thymol (5-0.039%) and LAE (5-0.039%). Bacterial cocktails were diluted 1:100 in a sterile MHB to reach a concentration of approximately 6 log10 CFU/mL, with 50 μL of each cocktail added to the respective well. […]
(§3) The MBC was determined by directly inoculating the content of wells with concentrations higher than the MIC value on selective growth media. […] The MBC value was determined as the lowest concentration when there were no bacterial colonies observed (Elshikh et al., 2016).

[3] = cited from earlier work
S. aureus cocktail [4] = experiment: Minimum bactericidal concentration (MBC), plating of wells on selective media; assay type: cell-based, Staphylococcus aureus
Experimental: as §1, §2, §3

Salmonella spp. cocktail [5] = assay type: cell-based
[6] = tested on: all tested bacterial pathogens (STEC, Salmonella spp., L. monocytogenes, S. aureus); assay type: cell-based
S. aureus cocktail [7] = assay type: cell-based, Staphylococcus aureus
[8] = tested on: L. monocytogenes cocktail; assay type: cell-based, Listeria monocytogenes
Salmonella spp. cocktail [9] = experiment: Minimum bactericidal concentration (MBC), plating of wells on selective media; assay type: cell-based
Experimental: as §1, §2, §3

STEC cocktail [10] = assay type: cell-based; remark: listed apart in the source

Compound: CCCCCCCCCCCC(=O)N[C@@H](CCCN=C(N)N)C(=O)OCC [LAE, lauric arginate]
- MIC, LAE (STEC cocktail [1]; 24 h at 37° C.): 0.078 % (V/V)
- MBC, LAE [2]: 0.313 % (V/V)
- metabolism of LAE in the human body [3]: rapidly metabolized in the human body to lauric acid and arginine
- MBC, LAE (S. aureus cocktail [4]): 0.313 % (V/V)
- MIC, LAE (Salmonella spp. cocktail [5]; 24 h at 37° C.): 0.078 % (V/V)
- concentration of LAE that inhibited all tested bacterial pathogens [6]: 0.078%
- MIC, LAE (S. aureus cocktail [7]; 24 h at 37° C.): 0.078 % (V/V)
- MIC, LAE ([8]; 24 h at 37° C.): 0.078 % (V/V)
- MBC, LAE (Salmonella spp. cocktail [9]): 0.625 % (V/V)

Compound: Cc1ccc(C(C)C)c(O)c1 [Thymol, thymol]
- MIC, Thymol (STEC cocktail [1]): 1.25 % (W/V)
- MBC, Thymol [2]: 1.25 % (W/V)
- MBC, Thymol (STEC cocktail [10]): 2.5 % (W/V)
- MBC, Thymol (S. aureus cocktail [4]): 1.25 % (W/V)
- MIC, Thymol (Salmonella spp. cocktail [5]): 0.625 % (W/V)
- MIC, Thymol (S. aureus cocktail [7]): 0.156 % (W/V)
- MIC, Thymol [8]: 0.625 % (W/V)
- MBC, Thymol (Salmonella spp. cocktail [9]): 2.5 % (W/V)

Compound: nisin
- MIC, Nisin (STEC cocktail [1]; 24 h at 37° C.): Nil (key: Nil indicates there was no growth inhibition, nor killing effect at ≤ 50,000 IU/mL)
- MBC, Nisin [2]: Nil (Nil indicates there was no growth inhibition, nor killing effect at ≤ 50,000 IU/mL)
- MBC, Nisin (STEC cocktail [10]): Nil (key: Nil indicates there was no growth inhibition, nor killing effect at ≤ 50,000 IU/mL)
- MBC, Nisin (S. aureus cocktail [4]): Nil (Nil indicates there was no growth inhibition, nor killing effect at ≤ 50,000 IU/mL)
- MIC, Nisin (Salmonella spp. cocktail [5]; 24 h at 37° C.): Nil (key: Nil indicates there was no growth inhibition, nor killing effect at ≤ 50,000 IU/mL)
- antibacterial activity of nisin in MIC and MBC experiments [6]: very poor antibacterial activity
- MIC, Nisin (S. aureus cocktail [7]; 24 h at 37° C.): Nil (key: Nil indicates there was no growth inhibition, nor killing effect at ≤ 50,000 IU/mL)
- MIC, Nisin ([8]; 24 h at 37° C.): Nil (key: Nil indicates there was no growth inhibition, nor killing effect at ≤ 50,000 IU/mL)
- MBC, Nisin (Salmonella spp. cocktail [9]): Nil (Nil indicates there was no growth inhibition, nor killing effect at ≤ 50,000 IU/mL)
